# Test system: 889142-216-R-J1-PDC complex spheroid viability
# Assay: Anticancer human tumor 889142-216-R-J1-PDC patient-derived bladder carcinoma cell line growth inhibition [POLQ]
# Conditions: for IC50: curve of first compound; for viability, T/C: stronger effect = lower value
# Summary of the method: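 Three-cell-type spheroids modelling solid tumor plus stroma served as the readout system; POL inhibitors were tested individually and in combination, concentration ranges set by clinical Cmax where known.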
# [1] = second compound 0.0316 µM, first compound 0.0316 µM
# [2] = second compound 0.0316 µM, first compound 0.1 µM
# [3] = second compound 0.0316 µM, first compound 0.316 µM
# [4] = second compound 0.0316 µM, first compound 1 µM
# [5] = second compound 0.0316 µM, first compound 3.16 µM
# [6] = second compound 0.0316 µM, first compound 10 µM
# [7] = second compound 0.1 µM, first compound 0.0316 µM
# [8] = second compound 0.1 µM, first compound 0.1 µM
# [9] = second compound 0.1 µM, first compound 0.316 µM
# [10] = second compound 0.1 µM, first compound 1 µM
# [11] = second compound 0.1 µM, first compound 3.16 µM
# [12] = second compound 0.1 µM, first compound 10 µM
# [13] = second compound 0.316 µM, first compound 0.0316 µM
# [14] = second compound 0.316 µM, first compound 0.1 µM
# [15] = second compound 0.316 µM, first compound 0.316 µM
# [16] = second compound 0.316 µM, first compound 1 µM
# [17] = second compound 0.316 µM, first compound 3.16 µM
# [18] = second compound 0.316 µM, first compound 10 µM
# [19] = second compound 1 µM, first compound 0.0316 µM
# [20] = second compound 1 µM, first compound 0.1 µM
# [21] = second compound 1 µM, first compound 0.316 µM
# [22] = second compound 1 µM, first compound 1 µM
# [23] = second compound 1 µM, first compound 3.16 µM
# [24] = second compound 1 µM, first compound 10 µM
# [25] = second compound 3.16 µM, first compound 0.0316 µM
# [26] = second compound 3.16 µM, first compound 0.1 µM
# [27] = second compound 3.16 µM, first compound 0.316 µM
# [28] = second compound 3.16 µM, first compound 1 µM
# [29] = second compound 3.16 µM, first compound 3.16 µM
# [30] = second compound 3.16 µM, first compound 10 µM
# [31] = second compound 10 µM, first compound 0.0316 µM
# [32] = second compound 10 µM, first compound 0.1 µM
# [33] = second compound 10 µM, first compound 0.316 µM
# [34] = second compound 10 µM, first compound 1 µM
# [35] = second compound 10 µM, first compound 3.16 µM
# [36] = second compound 10 µM, first compound 10 µM
# 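Further: spheroids exposed to compounds for seven days.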
# 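Wherever viability, T/C is given: 100% = DMSO vehicle control viability.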
smiles,measurement,setting,value
O=C(Nc1ccc(O)c(NS(=O)(=O)c2ccc(F)cc2)c1)c1ccc(-c2ccccc2)cc1 + Cc1cccc(N(C)C(=O)C2C(O)CCN2c2nc(C)cc(C(F)(F)F)c2C#N)c1,IC50,second compound 0.0316 µM,> 10 µM
same,IC50,second compound 0.1 µM,> 10 µM
same,IC50,second compound 0.316 µM,> 10 µM
same,IC50,second compound 1 µM,> 10 µM
same,IC50,second compound 3.16 µM,> 10 µM
same,IC50,second compound 10 µM,> 10 µM
same,"viability, T/C",[1],103%
same,"viability, T/C",[2],106%
same,"viability, T/C",[3],112%
same,"viability, T/C",[4],134%
same,"viability, T/C",[5],101%
same,"viability, T/C",[6],85.1%
same,"viability, T/C",[7],94.9%
same,"viability, T/C",[8],121%
same,"viability, T/C",[9],98.1%
same,"viability, T/C",[10],127%
same,"viability, T/C",[11],126%
same,"viability, T/C",[12],86.4%
same,"viability, T/C",[13],140%
same,"viability, T/C",[14],93.2%
same,"viability, T/C",[15],85.9%
same,"viability, T/C",[16],120%
same,"viability, T/C",[17],112%
same,"viability, T/C",[18],80.2%
same,"viability, T/C",[19],96.2%
same,"viability, T/C",[20],96.7%
same,"viability, T/C",[21],84%
same,"viability, T/C",[22],97.5%
same,"viability, T/C",[23],131%
same,"viability, T/C",[24],70.4%
same,"viability, T/C",[25],87.8%
same,"viability, T/C",[26],123%
same,"viability, T/C",[27],121%
same,"viability, T/C",[28],107%
same,"viability, T/C",[29],91.2%
same,"viability, T/C",[30],77.6%
same,"viability, T/C",[31],69.3%
same,"viability, T/C",[32],98.9%
same,"viability, T/C",[33],97%
same,"viability, T/C",[34],89.6%
same,"viability, T/C",[35],85.3%
same,"viability, T/C",[36],69.4%
CC(=O)O[C@H]1C(=O)[C@@]2(C)[C@H]([C@H](OC(=O)c3ccccc3)[C@]3(O)C[C@H](OC(=O)[C@H](O)[C@@H](NC(=O)c4ccccc4)c4ccccc4)C(C)=C1C3(C)C)[C@]1(OC(C)=O)CO[C@@H]1C[C@@H]2O + Nc1ccc(C#CCN(C(=O)Cc2ncc(C(F)(F)F)cc2C(F)(F)F)c2ccc(F)cc2)nn1,IC50,second compound 0.0316 µM,0.072 µM
same,IC50,second compound 0.1 µM,0.907 µM
same,IC50,second compound 0.316 µM,> 3 µM
same,IC50,second compound 1 µM,1.33 µM
same,IC50,second compound 3.16 µM,< 0.00949 µM
same,IC50,second compound 10 µM,> 3 µM
same,"viability, T/C","second compound 0.0316 µM, first compound 0.00949 µM",53.5%
same,"viability, T/C","second compound 0.0316 µM, first compound 0.03 µM",45.8%
same,"viability, T/C","second compound 0.0316 µM, first compound 0.0949 µM",51.5%
same,"viability, T/C","second compound 0.0316 µM, first compound 0.3 µM",50.9%
same,"viability, T/C","second compound 0.0316 µM, first compound 0.949 µM",49.4%
same,"viability, T/C","second compound 0.0316 µM, first compound 3 µM",43.8%
same,"viability, T/C","second compound 0.1 µM, first compound 0.00949 µM",57.1%
same,"viability, T/C","second compound 0.1 µM, first compound 0.03 µM",41.5%
same,"viability, T/C","second compound 0.1 µM, first compound 0.0949 µM",54.6%
same,"viability, T/C","second compound 0.1 µM, first compound 0.3 µM",51.2%
same,"viability, T/C","second compound 0.1 µM, first compound 0.949 µM",53.1%
same,"viability, T/C","second compound 0.1 µM, first compound 3 µM",47.1%
same,"viability, T/C","second compound 0.316 µM, first compound 0.00949 µM",53%
same,"viability, T/C","second compound 0.316 µM, first compound 0.03 µM",57.2%
same,"viability, T/C","second compound 0.316 µM, first compound 0.0949 µM",46.3%
same,"viability, T/C","second compound 0.316 µM, first compound 0.3 µM",50.3%
same,"viability, T/C","second compound 0.316 µM, first compound 0.949 µM",61.7%
same,"viability, T/C","second compound 0.316 µM, first compound 3 µM",50.9%
same,"viability, T/C","second compound 1 µM, first compound 0.00949 µM",53.7%
same,"viability, T/C","second compound 1 µM, first compound 0.03 µM",51%
same,"viability, T/C","second compound 1 µM, first compound 0.0949 µM",52%
same,"viability, T/C","second compound 1 µM, first compound 0.3 µM",50.6%
same,"viability, T/C","second compound 1 µM, first compound 0.949 µM",51.8%
same,"viability, T/C","second compound 1 µM, first compound 3 µM",48.6%
same,"viability, T/C","second compound 3.16 µM, first compound 0.00949 µM",45.2%
same,"viability, T/C","second compound 3.16 µM, first compound 0.03 µM",54%
same,"viability, T/C","second compound 3.16 µM, first compound 0.0949 µM",51.3%
same,"viability, T/C","second compound 3.16 µM, first compound 0.3 µM",46.7%
same,"viability, T/C","second compound 3.16 µM, first compound 0.949 µM",53.3%
same,"viability, T/C","second compound 3.16 µM, first compound 3 µM",57.1%
same,"viability, T/C","second compound 10 µM, first compound 0.00949 µM",55%
same,"viability, T/C","second compound 10 µM, first compound 0.03 µM",52.2%
same,"viability, T/C","second compound 10 µM, first compound 0.0949 µM",55.5%
same,"viability, T/C","second compound 10 µM, first compound 0.3 µM",59.3%
same,"viability, T/C","second compound 10 µM, first compound 0.949 µM",59.9%
same,"viability, T/C","second compound 10 µM, first compound 3 µM",53.3%
COc1cc(C2c3cc4c(cc3C(OC3OC5COC(C)OC5C(O)C3O)C3COC(=O)C23)OCO4)cc(OC)c1O (stereo not drawn) + Nc1ccc(C#CCN(C(=O)Cc2ncc(C(F)(F)F)cc2C(F)(F)F)c2ccc(F)cc2)nn1,IC50,second compound 0.0316 µM,> 10 µM
same,IC50,second compound 0.1 µM,> 10 µM
same,IC50,second compound 0.316 µM,> 10 µM
same,IC50,second compound 1 µM,8.97 µM
same,IC50,second compound 3.16 µM,> 10 µM
same,IC50,second compound 10 µM,> 10 µM
same,"viability, T/C",[1],90.8%
same,"viability, T/C",[2],92.8%
same,"viability, T/C",[3],86.8%
same,"viability, T/C",[4],60.5%
same,"viability, T/C",[5],96.8%
same,"viability, T/C",[6],62.9%
same,"viability, T/C",[7],99.5%
same,"viability, T/C",[8],101%
same,"viability, T/C",[9],69.3%
same,"viability, T/C",[10],60.2%
same,"viability, T/C",[11],84.5%
same,"viability, T/C",[12],61.5%
same,"viability, T/C",[13],116%
same,"viability, T/C",[14],86.2%
same,"viability, T/C",[15],78.8%
same,"viability, T/C",[16],69%
same,"viability, T/C",[17],79.2%
same,"viability, T/C",[18],54.4%
same,"viability, T/C",[19],121%
same,"viability, T/C",[20],95.6%
same,"viability, T/C",[21],80.5%
same,"viability, T/C",[22],58.2%
same,"viability, T/C",[23],66%
same,"viability, T/C",[24],56.9%
same,"viability, T/C",[25],104%
same,"viability, T/C",[26],78.2%
same,"viability, T/C",[27],72.2%
same,"viability, T/C",[28],59.8%
same,"viability, T/C",[29],68.1%
same,"viability, T/C",[30],61%
same,"viability, T/C",[31],86.7%
same,"viability, T/C",[32],104%
same,"viability, T/C",[33],79.9%
same,"viability, T/C",[34],74.3%
same,"viability, T/C",[35],76.4%
same,"viability, T/C",[36],62.9%
COc1cccc2c1C(=O)c1c(O)c3c(c(O)c1C2=O)CC(O)(C(=O)CO)CC3OC1CC(N)C(O)C(C)O1 (stereo not drawn) + Nc1ccc(C#CCN(C(=O)Cc2ncc(C(F)(F)F)cc2C(F)(F)F)c2ccc(F)cc2)nn1,IC50,second compound 0.0316 µM,0.338 µM
same,IC50,second compound 0.1 µM,0.339 µM
same,IC50,second compound 0.316 µM,0.254 µM
same,IC50,second compound 1 µM,0.45 µM
same,IC50,second compound 3.16 µM,0.287 µM
same,IC50,second compound 10 µM,0.318 µM
same,"viability, T/C",[1],55.1%
same,"viability, T/C",[2],78.9%
same,"viability, T/C",[3],52.2%
same,"viability, T/C",[4],6.13%
same,"viability, T/C",[5],0.74%
same,"viability, T/C",[6],1.95%
same,"viability, T/C",[7],71.8%
same,"viability, T/C",[8],79.8%
same,"viability, T/C",[9],52%
same,"viability, T/C",[10],9.08%
same,"viability, T/C",[11],1.08%
same,"viability, T/C",[12],1.72%
same,"viability, T/C",[13],66.6%
same,"viability, T/C",[14],76.2%
same,"viability, T/C",[15],44.1%
same,"viability, T/C",[16],8.99%
same,"viability, T/C",[17],1.03%
same,"viability, T/C",[18],1.55%
same,"viability, T/C",[19],77.8%
same,"viability, T/C",[20],75.3%
same,"viability, T/C",[21],68.6%
same,"viability, T/C",[22],7.94%
same,"viability, T/C",[23],1.14%
same,"viability, T/C",[24],2.34%
same,"viability, T/C",[25],66%
same,"viability, T/C",[26],77.7%
same,"viability, T/C",[27],47.9%
same,"viability, T/C",[28],4.28%
same,"viability, T/C",[29],0.84%
same,"viability, T/C",[30],1.58%
same,"viability, T/C",[31],71.5%
same,"viability, T/C",[32],72.3%
same,"viability, T/C",[33],50.2%
same,"viability, T/C",[34],3.75%
same,"viability, T/C",[35],1.07%
same,"viability, T/C",[36],1.08%

# Reference: PubChem BioAssay AID1963831 (Molecular Pharmacology Branch, DTP, NCI, 2024)
